Experimental data taken from article PMC13261308, “Mapping Functionally Relevant Tractable Lysines of Challenging Protein Targets by Covalent Fragment Screening” (Chembiochem, 2026).

What was measured:
[1] = HPLC-MS-based stability (blank, without N-α-acetyl-lysine) in BBS buffer pH 10.2; conditions: pH 10.2 buffer without N-α-acetyl-lysine
Method: (§1) 1.2.1 HPLC-MS-based N-α-acetyl-lysine reactivity assay3
(§2) HPLC-MS measurements were performed using a Shimadzu LCMS-2020 device equipped with a positive–negative double ion source (DUIS±) and a quadrupole MS analyzer in the range of m/z 50–1000. The sample was eluted with gradient elution using eluent A (0.1% HCOOH in H2O) and eluent B (0.1% HCOOH in MeCN). The column temperature was always kept at 30 °C; the injection volume was 10 µL, and the flow rate was set to 1.5 mL/min. A Reprospher C18 (5 μm, 100 mm × 3 mm) column was used along with the following gradient. The in itial condition was 0% B eluent, followed by a linear gradient to 100% B eluent by 2 min; from 2 to […]
(§3) was restored and retained until 5 min.
(§4) For the reactivity and stability assay, in a glass LC-MS vial the internal standard (indoprofen or papaverine or 1,4-dicyanobenzene, 50 µL, 2 mM in acetonitrile) and the 100 mM BBS buffer […]
(§5) of reactivity or stability, respectively). Finally, to this mixture the corresponding electrophile was added (50 µl, 20 mM in acetonitrile) right before the measurement. The vial was mixed, then analyzed by HPLC-MS (10 µL injection volume) at intervals of approximately 60 min (0-4 h, 6 […]
(§6) Final volume was 1 mL. In the case of highly reactive compounds, the measurement was done within 1 h, monitored every 5 minutes. The AUC (area under the […]
(§7) corrected with the internal standard. The fragments’ AUC values were subjected to ordinary least-squares (OLS) linear regression, and to compute the important parameters (kinetic rate constant and half-life time), an Excel sheet was applied. The data are expressed as means of duplicate determination. The kinetic rate constant for the degradation and corrected N-α-acetyl-lysine reactivity were calculated as follows. The reaction half-life for pseudo-first-order reactions (t1/2) is ln 2/k, where k is the reaction rate. In the case of competing reactions (reaction with N-α-acetyl-lysine and degradation), the apparent reaction rate is kLys = kBlank + kBinding.
(§8) When half-lives are measured experimentally, t1/2(Lys) = ln 2/(kLys) = ln 2/(kBlank + kBinding). In our case, the corrected kBlank and kLys (regarding blank and N-α-acetyl lysine-containing samples, respectively) can be calculated by linear regression of the measured kinetic data points. […]

[2] = HPLC-MS-based N-α-acetyl-lysine reactivity assay; conditions: pH 10.2, monitored for 24 h
Method: as §1, §2, §3, §4, §5, §6, §7, §8

| Compound | Stability t1/2, pH 10.2 [1] | Lys-reactivity t1/2, pH 10.2 [2] |
| --- | --- | --- |
| COc1c(Nc2cc(C(F)(F)F)cc(C(F)(F)F)c2)c(=O)c1=O [compound 18] | 12.17 h | – |
| FC(F)(F)c1cc(Nc2nc(Cl)nc(Cl)n2)cc(C(F)(F)F)c1 [compound 19] | 0.97 h | – |
| O=Cc1c(O)cc(C(F)(F)F)cc1C(F)(F)F [compound 26] | 246.76 h | 40.93 h |
| O=Cc1cc2ccccc2cc1C=O [compound 31, 2,3‐naphthalene‐dicarboxaldehyde] | 11.69 h | – |
| FC(F)=Cc1cc(C(F)(F)F)cc(C(F)(F)F)c1 [compound 17] | 3.32 h | – |
| O=S(=O)(On1nnc2ccccc21)c1cc(C(F)(F)F)cc(C(F)(F)F)c1 [compound 6] | 0.35 h | – |
| CC(=O)N(C(=O)c1cc(C(F)(F)F)cc(C(F)(F)F)c1)c1ccccc1 [compound 13] | – | 0.27 h |
| Cc1ccc(S(=O)(=O)N(CC#N)C(=O)Cc2cc(C(F)(F)F)cc(C(F)(F)F)c2)cc1 [compound 8] | 0.17 h | 0.26 h |
| C#Cc1ccc(C(F)(F)F)cc1C=O [compound 32] | 15.36 h | 0.23 h |
| O=S(=O)(F)Oc1cc(C(F)(F)F)cc(C(F)(F)F)c1 [compound 4] | 4.94 h | – |
